# According to article PMC11229689, “In Vitro Selection of Macrocyclic L-α/D-α/β/γ-Hybrid Peptides Targeting IFN-γ/IFNGR1 Protein–Protein Interaction” (Journal of the American Chemical Society, 2024):
# *1 amine or outer side, *2 acyl side, *3 side chain or, on linkers, in order; H or OH if unused. Where a SMILES comes first, the peptide text is derived from it. Bridges are numbered along the chain shown (N, C = ends). [ ]: non-standard residue; d: D form. Acbc(cis-1,3) = O=C([C@H]1C[C@@H](N[*:1])C1)[*:2]; X1 = O=C([C@@H]1CCC[C@@H]1N[*:1])[*:2]; Orn = NCCC[C@H](N)C(=O)O
# Key:
# [1] = Serum stability assay (LC/MS); assay type: in vitro ADME, human; conditions: human serum, 37 °C, LC/MS, relative to internal standard peptide, n = 3; for half-life: human, read-out: half-life in human serum (t1/2) (converted)
# Experimental: Binding affinities of IA1 and IA2 against IFNGR1 were evaluated by surface plasmon resonance (SPR) (Table 1 and SI Figure S6A). […] To investigate the contribution of the N-terminal [yVPβ^1RR] motif and β^1 residue in IA1, three scrambled peptides IA1s1–3 and a variant IA1β^14A were synthesized and evaluated. […] We next evaluated inhibitory activities of IA1 and IA2 against the ligand–receptor PPI between IFN-γ and IFNGR1 using AlphaLISA (Table 1 and SI Figure S7).[37] […] We also determined the serum half-lives of IA1 and IA2, considering peptidase resistance as an important factor for therapeutic peptides.[24] A sample peptide and a peptidase-resistant internal standard peptide were coincubated in human serum at 37 °C, and the relative amount of the remaining sample peptide was estimated by LC/MS. […]
# 10–200 μM synthetic peptide and 5 μM serum-resistant internal standard peptide consisting only of D-amino acids (NH2-PEG5-wstndwstnd-PEG5-CONH2)3 were mixed and incubated in human serum (Cosmo Bio, 12181201) at 37 °C for up to 120 h. At each time point, 4 μL of the mixture was removed and quenched by adding 12 μl methanol. Following centrifugation (15,000 g, 4 °C, 5 min), 10 μL of the supernatant was mixed with 40 μl of 1% (v/v) TFA. Following centrifugation (15,000 g, 4 °C, 5 min), the supernatant was collected for LC/MS analysis, which used a reverse-phase column (ACQUITY UPLC BEH C18, 1.7 μm, 2.1 × 150 mm; Waters) and a Xevo G2-XS QTof system (Waters) with a linear gradient from 1% B to 61% B. Buffer A was water with 0.1% (v/v) formic acid; buffer B was acetonitrile with 0.1% (v/v) formic acid. The percentages of remaining peptides were determined by the peak area integration of the chromatograms. For tandem mass spectrometry, MS/MS spectra were acquired with a 0.2 s scan time, with 10−30 eV collision energy. The obtained LC/MS data was analyzed using MassLynx 4.1 (Waters). […]
# [2] = molecular target: T1, Fc-tagged human IFNGR1 (Homo sapiens, UniProt P15260); experiment: Binding kinetics and affinity to IFNGR1 by surface plasmon resonance (SPR); conditions: SPR, 25 °C, 1:1 binding model; for Kd: read-out: KD; for kon: single-cycle kinetics, read-out: ka
# T1 construct: purchased ACROBiosystems
# T1 sequence (P15260 18-489): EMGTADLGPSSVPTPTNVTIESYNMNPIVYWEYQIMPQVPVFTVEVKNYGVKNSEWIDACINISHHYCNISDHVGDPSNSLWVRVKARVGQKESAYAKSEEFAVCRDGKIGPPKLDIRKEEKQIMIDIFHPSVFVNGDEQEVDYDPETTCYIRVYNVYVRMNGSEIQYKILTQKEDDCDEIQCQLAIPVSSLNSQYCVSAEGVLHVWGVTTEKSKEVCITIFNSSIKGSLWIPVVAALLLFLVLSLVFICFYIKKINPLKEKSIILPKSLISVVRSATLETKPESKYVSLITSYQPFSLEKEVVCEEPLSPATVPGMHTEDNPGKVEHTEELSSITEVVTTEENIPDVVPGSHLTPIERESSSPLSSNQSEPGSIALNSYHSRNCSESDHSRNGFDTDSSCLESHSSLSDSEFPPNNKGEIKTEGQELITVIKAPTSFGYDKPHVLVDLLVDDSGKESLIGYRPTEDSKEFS
# In short: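 Fc-tagged IFNGR1 captured on a protein G chip (1,200–1,600 RU), 25 °C, running buffer 10 mM Tris-HCl pH 8.0, 150 mM NaCl, 0.05% Tween 20, 0.1% DMSO. Single-cycle kinetics with five twofold-diluted peptide concentrations at 30 μL/min. Sensorgrams fitted to a 1:1 binding model for kinetic constants and affinity.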
# [3] = molecular target: T2, IFN-γ/IFNGR1 protein–protein interaction (Homo sapiens, UniProt P15260); experiment: IFNGR1 inhibition assay using AlphaLISA; assay type: biochemical; conditions: four-parameter dose–response fit, n = 3
# T2 construct: purchased ACROBiosystems
# T2 sequence (P15260 18-245 limits assumed): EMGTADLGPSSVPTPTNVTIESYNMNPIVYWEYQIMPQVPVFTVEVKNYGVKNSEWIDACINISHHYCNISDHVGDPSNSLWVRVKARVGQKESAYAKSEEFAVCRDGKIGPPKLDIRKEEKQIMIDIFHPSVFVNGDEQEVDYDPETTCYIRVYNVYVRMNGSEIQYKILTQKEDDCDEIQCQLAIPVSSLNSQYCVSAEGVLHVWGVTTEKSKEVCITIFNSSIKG
# Experimental: IFNGR1 inhibition assay using AlphaLISA
# The inhibitory activity of peptides against IFN-γ/IFNGR1 protein–protein interaction (PPI) was determined by AlphaLISA.5 Peptides, proteins, and beads were diluted in AlphaLISA immunoassay buffer (PerkinElmer, AL000C). 3.6 μL of 5 nM Fc-tagged IFNGR1 and 3.6 μL of synthetic peptides were mixed in AlphaPlate-384 Shallow Well (PerkinElmer) and preincubated at 25 °C for 10 min. 3.6 μL of 15 nM biotin-tagged IFN-γ was then added to the mix and incubated at 25 °C for 20 min. 3.6 μL each human IgG acceptor beads (PerkinElmer) and streptavidin donor beads (PerkinElmer) were added to the above mix and incubated at 25 °C for 30 min in dark place. Emission at 615 nm was measured […]
# by EnSpire Multimode Plate Reader (PerkinElmer). The fraction of bound IFN-γ/IFNGR1 was calculated by the intensity of emission in the presence of peptide divided by that in the absence of […]
# peptide. […]
# Puromycin. Normocin, Blasticidin, Zeocin, and Puromycin were excluded when conducting the experiments. To evaluate the cellular activity of peptides, peptide mixtures were added to 50,000 cells/well in a flat-bottom 96-well plate and pre-incubated for 30 min at 37 °C before stimulation.
# Subsequently, 1 ng/mL of recombinant IFN-γ (InvivoGen) was added to each well in a final reaction volume of 200 μL, followed by incubation for 20 h at 37 °C. 20 μL of supernatants from the induced cells was added to 180 μL Q U A N T I-Blue TM solution (InvivoGen). After further incubation for 3 h at 37 °C, the expression levels of the secreted embryonic alkaline phosphatase (SEAP) were determined by reading the O.D. at 650 nm on a Tecan M1000 PRO microplate reader (Tecan Group) and normalized to the non-treated well. IC50 value was analyzed by a normalized dose-response curve fitting by using GraphPad Prism 9.
# HEK-DualTM IFN-γ cells were used for the cell viability assay. 10,000 cells/well were added to each well in a flat-bottom 96-well plate. After 24 h, peptide mixtures were added to each well in a final volume of 100 μL. After further incubation for 24 h, 10 μL CCK-8 reagent (Dojindo) was added to […]
# [4] = system: HEK-Dual IFN-γ cells; experiment: Cell viability assay (CCK-8); conditions: up to 50 μM, 24 h incubation
smiles,measurement,setting,value
"CC(C)[C@@H]1NC(=O)[C@@H](Cc2ccc(O)cc2)NC(=O)CSC[C@H](C(N)=O)NC(=O)[C@H](CC(N)=O)NC(=O)[C@H](C)NC(=O)[C@H](CCCNC(=N)N)NC(=O)[C@@H]2CCCN2C(=O)[C@H]([C@@H](C)O)NC(=O)[C@H](CCCNC(=N)N)NC(=O)[C@H](CCCNC(=N)N)NC(=O)[C@H](CO)NC(=O)[C@H](CCCNC(=N)N)NC(=O)[C@H](CCCNC(=N)N)NC(=O)[C@@H]2CCC[C@@H]2NC(=O)[C@@H]2CCCN2C1=O [IB4γ^213A, ^AcyVPβ^1RRSRRTPRA Nc-NH2] ({CH2CO}-[dY]VP[X1]RRSRRTPRAN[dC]-NH2; thioether N-15)",half-life,[1],0.46 ± 0.05 h
same,Kd,[2],8.2 ± 1.4 nM
same,kon,[2],790000 ± 330000 M⁻¹ s⁻¹
same,IC50,[3],7.8 ± 1.6 nM
"CC(C)[C@@H]1NC(=O)[C@@H](Cc2ccc(O)cc2)NC(=O)CSC[C@H](C(N)=O)NC(=O)[C@H](CC(N)=O)NC(=O)[C@H]2C[C@H](C2)NC(=O)[C@H](CCCNC(=N)N)NC(=O)[C@@H]2CCCN2C(=O)[C@H]([C@@H](C)O)NC(=O)[C@H](CCCNC(=N)N)NC(=O)[C@H](CCCNC(=N)N)NC(=O)[C@H](CO)NC(=O)[C@H](CCCNC(=N)N)NC(=O)[C@H](CCCNC(=N)N)NC(=O)[C@@H]2CCC[C@@H]2NC(=O)[C@@H]2CCCN2C1=O [IB4γ^213γ^1, ^AcyVPβ^1RRSRRTPRγ^1Nc-NH2] ({CH2CO}-[dY]VP[X1]RRSRRTPR[Acbc(cis-1,3)]N[dC]-NH2; thioether N-15)",half-life in human serum (t1/2),[1],0.71 ± 0.04 h
same,half-life,[1],0.37 h
same,Kd,[2],6.1 ± 2.2 nM
same,kon,[2],210000 ± 70000 M⁻¹ s⁻¹
same,IC50,[3],10 ± 1 nM
"CC(C)[C@@H]1NC(=O)[C@@H](Cc2ccc(O)cc2)NC(=O)CSC[C@H](C(N)=O)NC(=O)[C@H](CC(N)=O)NC(=O)[C@H]2C[C@H](C2)NC(=O)[C@H](CCCN)NC(=O)[C@@H]2CCCN2C(=O)[C@H]([C@@H](C)O)NC(=O)[C@H](CCCN)NC(=O)[C@H](CCCN)NC(=O)[C@H](CO)NC(=O)[C@H](CCCNC(=N)N)NC(=O)[C@H](CCCNC(=N)N)NC(=O)[C@@H]2CCC[C@@H]2NC(=O)[C@@H]2CCCN2C1=O [IB4γ^213γ^1Orn, ^AcyVPβ^1RRSOOTPOγ^1Nc-NH2] ({CH2CO}-[dY]VP[X1]RRS[Orn][Orn]TP[Orn][Acbc(cis-1,3)]N[dC]-NH2; thioether N-15)",cytotoxicity,[4],none of them exhibited notable cytotoxicity up to 50 μM
same,half-life,[1],49 ± 4 h
same,Kd,[2],12 ± 1 nM
same,kon,[2],4.7e+06 ± 600000 M⁻¹ s⁻¹
same,IC50,[3],15 ± 5 nM
"CC(C)[C@@H]1NC(=O)[C@@H](Cc2ccc(O)cc2)NC(=O)CSC[C@H](C(N)=O)NC(=O)[C@H](CC(N)=O)NC(=O)[C@H](Cc2c[nH]cn2)NC(=O)[C@H](CCCNC(=N)N)NC(=O)[C@H](C)NC(=O)[C@H]([C@@H](C)O)NC(=O)[C@H](Cc2c[nH]cn2)NC(=O)[C@@H]2CCCN2C(=O)[C@H](CO)NC(=O)[C@H](CCCNC(=N)N)NC(=O)[C@H](CCCNC(=N)N)NC(=O)[C@@H]2CCC[C@@H]2NC(=O)[C@@H]2CCCN2C1=O [IB5γ^211A, ^AcyVPβ^1RRSPHTA RHNc-NH2] ({CH2CO}-[dY]VP[X1]RRSPHTARHN[dC]-NH2; thioether N-15)",half-life,[1],1.8 ± 0.6 h
same,Kd,[2],28 ± 6 nM
same,kon,[2],92000 ± 27000 M⁻¹ s⁻¹
same,IC50,[3],14 ± 1 nM
"CC(C)[C@@H]1NC(=O)[C@@H](Cc2ccc(O)cc2)NC(=O)CSC[C@H](C(N)=O)NC(=O)[C@H](CC(N)=O)NC(=O)[C@H](Cc2c[nH]cn2)NC(=O)[C@H](CCCNC(=N)N)NC(=O)[C@H]2C[C@H](C2)NC(=O)[C@H]([C@@H](C)O)NC(=O)[C@H](Cc2c[nH]cn2)NC(=O)[C@@H]2CCCN2C(=O)[C@H](CO)NC(=O)[C@H](CCCNC(=N)N)NC(=O)[C@H](CCCNC(=N)N)NC(=O)[C@@H]2CCC[C@@H]2NC(=O)[C@@H]2CCCN2C1=O [IB5γ^211γ^1, ^AcyVPβ^1RRSPHTγ^1RHNc-NH2] ({CH2CO}-[dY]VP[X1]RRSPHT[Acbc(cis-1,3)]RHN[dC]-NH2; thioether N-15)",cytotoxicity,[4],none of them exhibited notable cytotoxicity up to 50 μM
same,half-life,[1],34 ± 2 h
same,Kd,[2],17 ± 5 nM
same,kon,[2],320000 ± 50000 M⁻¹ s⁻¹
same,IC50,[3],27 ± 4 nM
